The experiment relates to Zygosaccharomyces bailii ATCC 60483. In kind it is cell-based. The settings on record: 30 seconds. On the procedure:
The rate at which a composition of the invention killed a test organism was measured by inoculating use solutions with a test organism and then quantifying survivors after various exposure times. Ninety-nine mL of each use solution was transferred to a 250 mL Erlenmeyer flask and allowed to equilibrate to test temperature. The liquid in the flask was swirled vigorously in a rapid circular motion and 1 mL of a suspension of the test organism was added.
After the exposure time, 1 mL quantities of the use solution/test organism mixture were transferred to 9 mL of the use-solution neutralizer. One mL quantities of the neutralizer were pour-plated using the plating medium. Serial 10-fold or 100-fold dilutions of the neutralizer solution were also plated. Plates were incubated and then surviving microorganisms were counted. The Log10 reduction of the test organism due to the use solution was determined by comparing reduction to an untreated control set (referred to as the Inoculum Numbers).
The test method was carried out as described in Example 5.
To determine the antifungal activity of hydrogen peroxide and peroxyacetic independently and in combination with a quaternary ammonium compound, the following experimental perimeters were used. The test organism studied was Zygosaccharomyces bailii ATCC 60483.
The test temperature used was 25° C., and the exposure time was 30 seconds. The use-solution neutralizer used was 1% sodium thiosulfate/1% peptone/0.025% catalase (for POAA, H2O2), Chambers neutralizer (for quaternary ammonium compound), and 1:1 mixture of the above (for POAA/H2O2/quaternary ammonium compound).
The microorganisms were plated on Sabourad dextrose agar and incubated for 4 days at 26° C.

Results on two compounds are retold here after patent publication US6627657B1 (priority 2000, dated 2003).

Read-outs that look alike come from different tables or passages of the source.

In the case of `CCCCCCCCCC[N+](C)(C)CCCCCCCCCC.[Cl-]` [Didecyl Dimethyl Ammonium Chloride], the “Log Reduction” value came to 0.00 (20 ppm, pH 3, 25° C.); 0.02 (20 ppm, pH 5, 25° C.); 0.05 (20 ppm, pH 7, 25° C.); 0.18 (20 ppm, pH 9, 25° C.); 1.69 (20 ppm, pH 11, 25° C.). In addition, the Survivors is reported as 9.4 × 10^6 cfu/ml (20 ppm, pH 3, 25° C.); 7.1 × 10^6 cfu/ml (20 ppm, pH 5, 25° C.); 6.6 × 10^6 cfu/ml (20 ppm, pH 7, 25° C.); 4.9 × 10^6 cfu/ml (20 ppm, pH 9, 25° C.); 1.5 × 10^5 cfu/ml (20 ppm, pH 11, 25° C.).

As for `OO` [Hydrogen Peroxide], the “Log Reduction” value worked out at 0.00 (532 ppm, pH 3, 25° C.); 0.00 (532 ppm, pH 5, 25° C.); 0.00 (532 ppm, pH 7, 25° C.); 0.04 (532 ppm, pH 9, 25° C.); 0.06 (532 ppm, pH 11, 25° C.). The Survivors runs as follows: (532 ppm, pH 3, 25° C.) 7.5 × 10^6 cfu/ml; (532 ppm, pH 5, 25° C.) 9.9 × 10^6 cfu/ml; (532 ppm, pH 7, 25° C.) 7.9 × 10^6 cfu/ml; (532 ppm, pH 9, 25° C.) 6.8 × 10^6 cfu/ml; (532 ppm, pH 11, 25° C.) 6.5 × 10^6 cfu/ml.
